The source made the active and inactive calls. No cut-off for these calls is given here.

Experimental findings from ChEMBL document CHEMBL1152333 (J Nat Prod, 2009) are described below.

Assay [1] concerns N2a. Put plainly: Inactivation of Kv channel in +30 mV-stimulated mouse N2A cells assessed as decay time constant of inactivated K+ current at 30 uM applied extracellularly (Rvb=1970 +/- 101 ms). Format: cell-based.
Assay [2] in a line: Inhibition of Kv channel in depolarized mouse N2A cells assessed as inhibition of +30 mV-triggered steady state potassium current flow.
For assay [3], the system named is N2a. Put plainly: Inactivation of open state of Kv channel in depolarized mouse N2A cells assessed as change in +30 mV-stimulated peak current at 30 uM treated 4 mins before voltage stimulation relative to control. It counts as cell-based.
Assay [4] has as its system N2a. The assay can be described thus: Inactivation of open state of Kv channels in depolarized mouse N2A cells assessed as reduction of +30 mV-stimulated peak current magnitude at 30 uM treated 4 mins before voltage stimulation followed by restimulation with +30 mV pulse every 20 seconds measured after 6 mins relative to control. Set-up: scale not given: the % may be the effect or the level left. Format: cell-based.

The species named for assay [5] is Mus musculus. Put plainly: Inhibition of Kv potassium channel in mouse N2A assessed as blockade of channel pore at 30 uM in presence of 70 mM intracellular potassium ion. Format: cell-based.
The species entered for assay [6] is Mus musculus. The assay can be described thus: Inhibition of Kv potassium channel in mouse N2A assessed as blockade of channel pore at 10 uM in presence of 140 mM intracellular potassium ion. Format: cell-based.
The subject of assay [7] is N2a. Put plainly: Inhibition of Kv potassium channel-induced current in mouse N2A cells assessed as left shift of activation curve. It counts as cell-based.
Assay [8] relates to N2a. Put plainly: Steady state inactivation of Kv potassium channel in -70 mV-activated mouse N2A cells followed by further 10 mV pulse stimulation assessed as reduction in half maximal activation potential at 30 uM (RVb= 10.8 +/- 2.4 mV). Format: cell-based.
In assay [9] the test system is N2a. Put plainly: Steady state inactivation of Kv potassium channel in -70 mV-activated mouse N2A cells followed by further 10 mV pulse stimulation assessed as change in slope factor potential at 30 uM (RVb= 16.1 +/- 1.1 no_unit). Format: cell-based.
In assay [10] the target is Potassium voltage-gated channel subfamily A member 2 (Homo sapiens) (UniProt P16389). The assay can be described thus: Inhibition of Kv1.2 channel expressed in -70 mV-activated HEK293 cells followed by further 10 mV pulse stimulation assessed as slope factor (RVb= 16.3 +/- 1.8 no_unit). It counts as cell-based.
The subject of assay [11] is N2a. The assay can be described thus: Steady state inactivation of Kv potassium channel in -70 mV-activated mouse N2A cells followed by further 10 mV pulse stimulation assessed as reduction in half maximal activation potential at 30 uM applied intracellularly (RVb= 10.8 +/- 2.4 mV). It counts as cell-based.
Assay [12] deals with N2a. The assay can be described thus: Steady state inactivation of Kv potassium channel in -70 mV-activated mouse N2A cells followed by further 10 mV pulse stimulation assessed as activation slope factor at 30 uM applied intracellularly. Format: cell-based.
Assay [13] relates to N2a. Put plainly: Steady state inactivation of Kv potassium channel in 10 second long prepulse-activated mouse N2A cells followed by further +70 mV pulse stimulation assessed as reduction in half maximal activation potential at 30 uM (RVb=20.9 +/- 2.1 mV). It counts as cell-based.
Assay [14] has as its system N2a. The assay can be described thus: Steady state inactivation of Kv potassium channel in 10 sec long prepulse-activated mouse N2A cells followed by further +70 mV pulse stimulation assessed as change in slope factor potential at 30 uM (Rvb=6.4 +/- 1.1 no_unit). Format: cell-based.
Assay [15] relates to N2a. Put plainly: Inactivation of Kv channel in +30 mV-stimulated mouse N2A cells assessed as decay time constant of inactivated K+ current at 30 uM applied extracellularly measured after compound washout (Rvb=1970 +/- 101 ms). It counts as cell-based.
Assay [16] relates to N2a. Put plainly: Inactivation of Kv channel in +30 mV-stimulated mouse N2A cells assessed as […] at 30 uM applied extracellularly measured after compound washout (Rvb=1970 +/- 101 ms). Format: cell-based.
Assay [17] deals with N2a. Put plainly: Inactivation of Kv channel in +30 mV-stimulated mouse N2A cells assessed as decay time constant of inactivated K+ current at 30 uM via bath application measured after 3 mins (Rvb=1567 +/- 104 ms). It counts as cell-based.
The subject of assay [18] is N2a. The assay can be described thus: Inactivation of open state of Kv channel in +30 mV-stimulated mouse N2A cells assessed as peak K+ current recovery at 30 uM treated 4 mins before voltage stimulation followed by restimulation with +30 mV pulse every 20 seconds measured after compound washout. It counts as cell-based.
Assay [19] concerns N2a. The assay can be described thus: Inhibition of Kv potassium channel in +10 to +70 mV-stimulated mouse N2A cells at 30 uM. It counts as cell-based.
In assay [20] the test system is N2a. Put plainly: Inhibition of Kv potassium channel in +10 to +70 mV-stimulated mouse N2A cells at 10 uM. It counts as cell-based.
Assay [21] concerns N2a. Put plainly: Inactivation of Kv channel in +30 mV-activated mouse N2A cells followed by further +30 mV pulse stimulation assessed as peak K+ current recovery at 30 uM. It counts as cell-based.

Sequence of Potassium voltage-gated channel subfamily A member 2 (Homo sapiens) (P16389 whole entry): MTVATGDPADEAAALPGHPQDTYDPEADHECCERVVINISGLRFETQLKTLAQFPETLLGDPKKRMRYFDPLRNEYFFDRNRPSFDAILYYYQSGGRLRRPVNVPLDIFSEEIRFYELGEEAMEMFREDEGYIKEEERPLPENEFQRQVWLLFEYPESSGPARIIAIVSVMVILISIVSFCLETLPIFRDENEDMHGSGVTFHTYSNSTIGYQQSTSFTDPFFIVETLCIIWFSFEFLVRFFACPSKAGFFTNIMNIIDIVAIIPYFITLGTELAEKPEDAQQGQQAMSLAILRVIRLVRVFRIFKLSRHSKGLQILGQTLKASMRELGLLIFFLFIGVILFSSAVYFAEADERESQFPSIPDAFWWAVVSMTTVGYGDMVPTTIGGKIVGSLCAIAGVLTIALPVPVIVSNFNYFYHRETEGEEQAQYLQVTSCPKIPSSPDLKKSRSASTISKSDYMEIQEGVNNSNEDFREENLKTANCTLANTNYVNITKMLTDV

Take `CC[C@H]1CN2CC[C@]3(C(=O)Nc4ccccc43)[C@@H]2C[C@@H]1/C(=C\OC)C(=O)OC` [RHYNCHOPHYLLINE]: the Activity is 60.8 ms in the assay on N2a [1]; 115% with N2a [3]; 72.5% in the assay with N2a [4]; -6.5 mV in the assay with N2a [8]; 23.2 in the assay with N2a [9]; 19.4 in assay [10]. Besides, the Activity in the assay on N2a [11] was 7.7 mV; in the assay on N2a [12], 11.8; in the assay with N2a [13], -34.6 mV; in the assay on N2a [14], 3.7; with N2a [15], 1900 ms; in the assay on N2a [16], 93.3 ms. The Activity was 35 ms with N2a [17] and 98% with N2a [18]. In addition, the IC50 (in general, the midpoint of a concentration-inhibition curve) in assay [2] is 7.9 µM. Moreover, the result in the assay filed under Mus musculus [5], in the assay filed under Mus musculus [6] and in the assay with N2a [21] was inactive. Moreover, the result in the assay on N2a [7], with N2a [19] and with N2a [20] was Active.
